# In ChEMBL document CHEMBL1138403, “Nitrogen-containing flavonoids as CDK1/Cyclin B inhibitors: design, synthesis, and biological evaluation” (Bioorg Med Chem Lett, 2007):
# Tests used:
# [1] = Antiproliferative activity against human ECA109 cells after 72 hrs; type: functional, cell-based; settings: ECa-109, 72 h
# Bel-7402 = assay: Antiproliferative activity against human Bel7402 cells after 72 hrs; type: functional, cell-based; settings: Bel-7402, 72 h
# PC-3 [2] = assay: Antiproliferative activity against human PC3 cells after 72 hrs; type: functional, cell-based; settings: PC-3, 72 h
# A549 = assay: Antiproliferative activity against human A549 cells after 72 hrs; type: functional, cell-based; settings: A549, 72 h
# HL-60 = assay: Antiproliferative activity against human HL60 cells after 72 hrs; type: functional, cell-based; settings: HL-60, 72 h
# [3] = Inhibition of CDK1/Cyclin B; set-up: species or system Homo sapiens
# MCF7 = assay: Antiproliferative activity against human MCF7 cells after 72 hrs; type: functional, cell-based; settings: MCF7, 72 h
# PC-3 [4] = assay: Cell cycle arrest in human PC3 cells assessed as accumulation at SubG0 phase at 7.2 uM after 24 hrs relative to control by flow cytometry; type: functional
# PC-3 [5] = assay: Cell cycle arrest in human PC3 cells assessed as accumulation at G2/M phase at 7.2 uM after 24 hrs relative to control by flow cytometry; type: functional
# PC-3 [6] = assay: Cell cycle arrest in human PC3 cells assessed as accumulation at G0/G1 phase at 7.2 uM after 12 hrs relative to control by flow cytometry; type: functional
# PC-3 [7] = assay: Cell cycle arrest in human PC3 cells assessed as accumulation at S phase at 7.2 uM after 24 hrs relative to control by flow cytometry; type: functional
# PC-3 [8] = assay: Effect on morphology of human PC3 cells assessed as increase in chromatin condensation by staining method; type: functional, cell-based
# PC-3 [9] = assay: Cell cycle arrest in human PC3 cells assessed as accumulation at SubG0 phase at 7.2 uM after 12 hrs relative to control by flow cytometry; type: functional
# PC-3 [10] = assay: Cell cycle arrest in human PC3 cells assessed as accumulation at G2/M phase at 7.2 uM after 12 hrs relative to control by flow cytometry; type: functional
# PC-3 [11] = assay: Cell cycle arrest in human PC3 cells assessed as accumulation at S phase at 7.2 uM after 12 hrs relative to control by flow cytometry; type: functional
# PC-3 [12] = assay: Cell cycle arrest in human PC3 cells assessed as accumulation at G0/G1 phase at 7.2 uM after 24 hrs relative to control by flow cytometry; type: functional
IC50 (Bel-7402) [µM],IC50 (PC-3 [2]) [µM],IC50 (A549) [µM],IC50 (HL-60) [µM],IC50 [3] [µM],IC50 (MCF7) [µM],Compound,IC50 [1] [µM],Activity (PC-3 [4]) [%],Activity (PC-3 [5]) [%],Activity (PC-3 [6]) [%],Activity (PC-3 [7]) [%],Activity (PC-3 [8]),Activity (PC-3 [9]) [%],Activity (PC-3 [10]) [%],Activity (PC-3 [11]) [%],Activity (PC-3 [12]) [%]
6.7,4.2,3.6,30.9,0.0497,2.7,CCN(CC)Cc1c(OC)cc(OC)c(C(=O)/C=C/c2ccccc2Cl)c1O,7.1,–,–,–,–,–,–,–,–,–
8.1,10,3.3,10.8,0.324,5.1,COc1cc(OC)c(C(=O)/C=C/c2ccccc2Cl)c(O)c1CN(C)CCOC(C)=O,3.9,–,–,–,–,–,–,–,–,–
23.3,0.003,1.3,0.2,0.0758,6.8,CCN(C)Cc1c(OC)cc(OC)c(C(=O)/C=C/c2ccccc2Cl)c1O,1.4,–,–,–,–,–,–,–,–,–
64.4,6.2,6.9,19.7,> 3,10,COc1cc(OC)c(C(=O)/C=C/c2ccccc2Cl)c(O)c1CN(C)CCO,0.8,–,–,–,–,–,–,–,–,–
30.9,14.5,3.1,11.4,0.468,3.2,COc1cc(OC)c(C(=O)/C=C/c2ccccc2Cl)c(O)c1CN(C)CCCN(C)C,3.8,–,–,–,–,–,–,–,–,–
8.5,7.2,9.1,0.4,> 3,10.6,COC(=O)CN(C)Cc1c(OC)cc(OC)c(C(=O)/C=C/c2ccccc2Cl)c1O,13.9,–,–,–,–,–,–,–,–,–
21.8,0.4,2.1,19.2,0.503,0.09,COc1cc(OC)c(C(=O)/C=C/c2ccccc2Cl)c(O)c1CN(C)C,2.6,–,–,–,–,–,–,–,–,–
35.2,12.5,79.4,80.3,–,73.2,COc1cc(OC)c(C(=O)/C=C/c2ccccc2Cl)c(O)c1CN(C)CC(=O)O,44.4,–,–,–,–,–,–,–,–,–

# Further lines, the compound ahead of its results:
Compound,IC50 (Bel-7402) [µM],IC50 (PC-3 [2]) [µM],IC50 (A549) [µM],IC50 (HL-60) [µM],IC50 [3] [µM],IC50 (MCF7) [µM],IC50 [1] [µM],Activity (PC-3 [4]) [%],Activity (PC-3 [5]) [%],Activity (PC-3 [6]) [%],Activity (PC-3 [7]) [%],Activity (PC-3 [8]),Activity (PC-3 [9]) [%],Activity (PC-3 [10]) [%],Activity (PC-3 [11]) [%],Activity (PC-3 [12]) [%]
COc1cc(O)c2c(=O)cc(-c3ccccc3Cl)oc2c1CN1CCCCC1,118,63.4,45.5,48.1,0.138,–,21.5,–,–,–,–,–,–,–,–,–
COc1cc(OC)c(C(=O)/C=C/c2ccccc2Cl)c(O)c1CN1CCCC1,6.8,3.1,2.6,14.2,1.25,3.9,6.9,–,–,–,–,–,–,–,–,–
COc1cc(OC)c(C(=O)/C=C/c2ccccc2Cl)c(O)c1CN1CCN(C)CC1,7.6,4.7,4.1,10.9,> 3,5.2,7.1,–,–,–,–,–,–,–,–,–
COc1cc(OC)c(C(=O)/C=C/c2ccccc2Cl)c(O)c1CN1CCOCC1,22.7,17.2,4.8,6.9,0.0475,17.2,6.2,–,–,–,–,–,–,–,–,–
COc1cc(O)c2c(=O)cc(-c3ccccc3Cl)oc2c1CN1CCOCC1,> 150,42,> 150,26.9,> 3,124,86.6,–,–,–,–,–,–,–,–,–
COc1cc(OC)c2c(=O)cc(-c3ccccc3Cl)oc2c1CN1CCOCC1,61.3,57.8,> 150,67.3,> 3,–,61.3,–,–,–,–,–,–,–,–,–
COc1cc(OC)c(C(=O)/C=C/c2ccccc2Cl)c(O)c1CN1CCCCC1,3.1,1.7,2.8,3.6,0.0569,2.6,2.5,34.1,9.8,60.2,29.9,Dose-dependent effect,6.1,14,25.8,60.7
COc1cc(OC)c2c(=O)cc(-c3ccccc3Cl)oc2c1CN1CCCCC1,44.2,15.5,> 150,34.5,0.155,23.7,23.7,–,–,–,–,–,–,–,–,–
